In patent US6727245B2, “Heterobicyclic derivatives” (Fujisawa Pharmaceutical Co., Ltd., priority 1994, dated 2004):

| melting point | Compound |
| --- | --- |
| 193 to 197 °C | COC(=O)c1ccc2c(ccn2-c2cccc(-n3c(=O)c(Cc4cccnc4)nc4cccnc43)c2)c1 [Example 54(25), 4-[3-(5-Methoxycarbonylindol-1-yl)phenyl]-2-(3-pyridylmethyl)-3-oxo-3,4-dihydropyrido[2,3-b]pyrazine] |
| 237 °C | O=c1c(Cc2cccnc2)nc2cccnc2n1-c1cccc(-c2cnc3ccccc3c2)c1 [Example 54(26), 4-[3-(3-Quinolyl)phenyl]-2-(3-pyridylmethyl)-3-oxo-3,4-dihydropyrido[2,3-b]pyrazine] |
| 109 to 111 °C | COc1ccc(-c2cccc(-n3c(=O)c(Cc4cccnc4)nc4cccnc43)c2)cc1OC1CCCC1 [Example 54(27), 4-[3-(3-Cyclopentyloxy-4-methoxyphenyl)phenyl]-2-(3-pyridylmethyl)-3-oxo-3,4-dihydropyrido[2,3-b]pyrazine] |
| 179 to 181 °C | COC(=O)c1cccc(-c2cccc(-n3c(=O)c(Cc4cccnc4)nc4cccnc43)c2)c1 [Example 54(28), 4-[3-(3-Methoxycarbonylphenyl)phenyl]-2-(3-pyridylmethyl)-3-oxo-3,4-dihydropyrido[2,3-b]pyrazine] |
| 180 to 181 °C | COC(=O)/C=C/c1cccc(-n2c(=O)c(Cc3cccnc3)nc3cccnc32)c1 [Example 54(29), 4-[3-[ (E)-2-Methoxycarbonylvinyl]phenyl]-2-(3-pyridylmethyl)-3-oxo-3,4-dihydropyrido[2,3-b]pyrazine] |
| 157 to 163 °C | O=c1c(Cc2cccnc2)nc2cccnc2n1-c1cccc(-c2cncc3ccccc23)c1 [Example 54(30), 4-[3-(4-Isoquinolyl)phenyl]-2-(3-pyridylmethyl)-3-oxo-3,4-dihydropyrido[2,3-b]pyrazine] |
| 188 to 194 °C | CC(=O)Nc1cccc(-c2cccc(-n3c(=O)c(Cc4cccnc4)nc4cccnc43)c2)c1 [Example 54(31), 4-[3-(3-Acetamidophenyl)phenyl]-2-(3-pyridylmethyl)-3-oxo-3,4-dihydropyrido[2,3-b]pyrazine] |
| 199 to 211 °C | O=c1c(Cc2ccccc2)nc2cccnc2n1-c1cccc(NS(=O)(=O)c2ccccc2)c1 [Example 68(13), 2-Benzyl-4-(3-phenylsulfonylaminophenyl)-3-oxo-3,4-dihydropyrido[2,3-b]pyrazine] |
| 183 to 185 °C | O=C(Nc1ccccc1)Nc1cccc(-n2c(=O)c(Cc3ccccc3)nc3ccc(Sc4ccccc4)nc32)c1 [Example 68(14), 2-Benzyl-6-phenylthio-4-[3-(3-phenylureido)phenyl]-3-oxo-3,4-dihydropyrido[2,3-b]pyrazine] |
| 169 to 170 °C | O=c1c(Cc2ccccc2)nc2cccnc2n1-c1cccc(-n2cccc2)c1 [Example 68(15), 2-Benzyl-4-[3-(pyrrol-1-yl)phenyl]-3-oxo-3,4-dihydropyrido[2,3-b]pyrazine] |
| 263 °C | O=c1c(Cc2ccc(O)cc2)nc2cccnc2n1-c1cccc(-n2cccc2)c1 [Example 68(16), 2-(4-Hydroxybenzyl)-4-[3-(pyrrol-1-yl)phenyl]-3-oxo-3,4-dihydropyrido[2,3-b]pyrazine] |
| 190 to 191 °C | COC(=O)c1cccn1-c1cccc(-n2c(=O)c(Cc3ccccc3)nc3cccnc32)c1 [Example 68(17), 2-Benzyl-4-[3-(2-methoxycarbonylpyrrol-1-yl)phenyl]-3-oxo-3,4-dihydropyrido[2,3-b]pyrazine] |
| 248 to 252 °C | CNC(=O)Nc1cccc(-c2cccc(-n3c(=O)c(Cc4cccnc4)nc4cccnc43)c2)c1 [Example 72, 4-[3-[3-(3-Methylureido)phenyl]phenyl]-2-(3-pyridylmethyl)-3-oxo-3,4-dihydropyrido[2,3-b]pyrazine] |
| 257 to 258 °C | CCNC(=O)Nc1cccc(-c2cccc(-n3c(=O)c(Cc4cccnc4)nc4cccnc43)c2)c1 [Example 73, 4-[3-[3-(3-Ethylureido)phenyl]phenyl]-2-(3-pyridylmethyl)-3-oxo-3,4-dihydropyrido[2,3-b]pyrazine] |
| 234 °C | O=C(Nc1ccccc1)Nc1cccc(-c2cccc(-n3c(=O)c(Cc4cccnc4)nc4cccnc43)c2)c1 [Example 74, 4-[3-[3-(3-Phenylureido)phenyl]phenyl]-2-(3-pyridylmethyl)-3-oxo-3,4-dihydropyrido[2,3-b]pyrazine] |
| 202 to 204 °C | Nc1cccc(-c2cccc(-n3c(=O)c(Cc4cccnc4)nc4cccnc43)c2)c1 [Example 75, 4-[3-(3-Aminophenyl)phenyl]-2-(3-pyridylmethyl)-3-oxo-3,4-dihydropyrido[2,3-b]pyrazine] |
| 202 to 210 °C | O=C(Nc1cccc(-c2cccc(-n3c(=O)c(Cc4cccnc4)nc4cccnc43)c2)c1)c1ccc2ccccc2c1 [Example 76(2), 4-[3-[3-(2-Naphthoylamino)phenyl]phenyl]-2-(3-pyridylmethyl)-3-oxo-3,4-dihydropyrido[2,3-b]pyrazine] |
| 216 to 218 °C | O=C(Nc1cccc(-c2cccc(-n3c(=O)c(Cc4cccnc4)nc4cccnc43)c2)c1)c1cc2ccccc2s1 [Example 76(3), 4-[3-[3-[(Benzo[b]thiophen-2-yl)carbonylamino]phenyl]phenyl]-2-(3-pyridylmethyl)-3-oxo-3,4-dihydropyrido[2,3-b]pyrazine] |
| 206 to 209 °C | O=C(Nc1cccc(-c2cccc(-n3c(=O)c(Cc4cccnc4)nc4cccnc43)c2)c1)c1cnc2ccccc2n1 [Example 76(4), 4-[3-[3-(2-Quinoxalinylcarbonylamino)phenyl]phenyl]-2-(3-pyridylmethyl)-3-oxo-3,4-dihydropyrido[2,3-b]pyrazine] |
| 223 to 224 °C | CCC(=O)Nc1cccc(-c2cccc(-n3c(=O)c(Cc4cccnc4)nc4cccnc43)c2)c1 [Example 76(5), 4-[3-(3-Propionylaminophenyl)phenyl]-2-(3-pyridylmethyl)-3-oxo-3,4-dihydropyrido[2,3-b]pyrazine] |
| 185 to 191 °C | O=C(/C=C/c1ccncc1)Nc1cccc(-c2cccc(-n3c(=O)c(Cc4cccnc4)nc4cccnc43)c2)c1 [Example 76(6), 4-[3-[3-[(E)-3-(4-Pyridyl)acryloylamino]phenyl]phenyl]-2-(3-pyridylmethyl)-3-oxo-3,4-dihydropyrido[2,3-b]pyrazine] |
| 130 to 160 °C (dec.) | CCOC(=O)/C=C/C(=O)Nc1cccc(-c2cccc(-n3c(=O)c(Cc4cccnc4)nc4cccnc43)c2)c1 [Example 77(3), 4-[3-[3-[(E)-3-Ethoxycarbonylacryloylamino]phenyl]phenyl]-2-(3-pyridylmethyl)-3-oxo-3,4-dihydropyrido[2,3-b]pyrazine] |
| 150 °C (dec.) | O=C(O)c1ccccc1C(=O)Nc1cccc(-c2cccc(-n3c(=O)c(Cc4cccnc4)nc4cccnc43)c2)c1 [Example 81, 4-[3-[3-(2-carboxybenzoylamino)phenyl]phenyl]-2-(3-pyridylmethyl)-3-oxo-3,4-dihydropyrido[2,3-b]pyrazine] |
| 193 to 199 °C | O=C(O)CCC(=O)Nc1cccc(-c2cccc(-n3c(=O)c(Cc4cccnc4)nc4cccnc43)c2)c1 [Example 82(1), 4-[3-[3-(3-Carboxypropanoylamino)phenyl]phenyl]-2-(3-pyridylmethyl)-3-oxo-3,4-dihydropyrido[2,3-b]pyrazine] |
